One assay addresses T1, CDK16 (Homo sapiens, UniProt Q00536).
T1 construct: purchased in-house DSF panel (SGC Frankfurt)
The experiment in a line: DSF. As to conditions: 10 μM compound. Type of assay: binding. An excerpt:
(§1) To investigate the selectivity profile of the different series, a differential scanning fluorimetry (DSF) assay was used. This assay offers a rapid and sensitive screening method that determines the denaturation temperature of a protein in absence and presence of a compound. This assay format measures the fluorescence of a dye, which depends on the folding state of the protein. The difference between the melting temperature (ΔTm) in the absence and presence of the compound represents the binding strength to the protein.
(§2) Measurements were performed in duplicates.

A further assay deals with T2, CDK2 (Homo sapiens, UniProt P24941).
T2 construct: purchased in-house DSF panel (SGC Frankfurt)
The experiment in a line: DSF. Type of assay: binding. As to conditions: 10 μM compound.
Source text: as §1, §2

The next assay concerns the target T3, CDK16/Cyclin Y (Homo sapiens, UniProt Q00536).
T3 construct: Full-length kinases were obtained as plasmids cloned in frame with a terminal NanoLuc-fusion; CS1810C178 (CCNY); host or cells: HEK293T
The assay is described as follows: NanoBRET. As to conditions: Figure 7, 11-point dose-response in duplicates; read-out: NanoBRET EC50 ± SEM against CDK16. The format is cell-based. The procedure: Next, to specifically quantify the outcome of the cellular activity of the compounds, a NanoBRET cellular target engagement assay was performed. The determination of the cellular potency on CDK16 correlated well with the corresponding DSF assay data (Figure S2). […] As mentioned before, the exchange from a methyl ester to an iso-propyl or tert-butyl ester led to a higher stabilization of the kinase in the DSF assay, which correlated with an increase in cellular potency as determined in the NanoBRET assay. […] The number of potential off-targets was low with 1 and 2 kinases with ΔTm >5 °C (Figure 4), highlighting these inhibitors for more comprehensive selectivity studied within the CDK and particular the TAIRE subfamily.
The assay was performed as described previously. In brief: Full-length kinases were obtained as plasmids cloned in frame with a terminal NanoLuc-fusion (Promega, Madison, WI, USA), as specified in table (Table S6). Plasmids were transfected into HEK293T cells using FuGENE HD (Promega, E2312) and proteins were allowed to express for 20h. Serially diluted inhibitor and NanoBRET Kinase Tracer (Promega) at a concentration determined previously as the KD,app (Table S5) were pipetted into white 384-well plates (Greiner 781207) using an Echo acoustic dispenser (Labcyte, San Jose, CA, USA). The corresponding protein-transfected cells were added and reseeded at a density of 2.5 × 10^5 cells/mL after trypsinization and resuspending in Opti-MEM without phenol red (Life Technologies, Carlsbad, CA, USA). The system was allowed to equilibrate for 2 h at 37 °C/5% CO2 prior to BRET measurements. To measure BRET, NanoBRET NanoGlo Substrate + Extracellular NanoLuc Inhibitor (Promega, N2540) was added as per the manufacturer’s protocol, and filtered luminescence was measured on a PHERAstar plate reader (BMG Labtech, Ortenberg, Germany) equipped with a luminescence filter pair (450 nm BP filter (donor) and 610 nm LP filter (acceptor)). Competitive displacement data were then graphed using GraphPad Prism 9 software using a normalized 3-parameter curve fit with the following equation: Y = 100/(1 + 10^(X–LogEC50)).

The target of the next assay is GSK3B (Homo sapiens, UniProt P49841). The assay is described as follows: DSF. Type of assay: binding. Also on record: purchased in-house DSF panel (SGC Frankfurt). To be noted: 10 μM compound.
Source text: as §1, §2

SMILES strings stand for the structures.

T3 sequence (Q00536 whole entry, the tested form may be a part): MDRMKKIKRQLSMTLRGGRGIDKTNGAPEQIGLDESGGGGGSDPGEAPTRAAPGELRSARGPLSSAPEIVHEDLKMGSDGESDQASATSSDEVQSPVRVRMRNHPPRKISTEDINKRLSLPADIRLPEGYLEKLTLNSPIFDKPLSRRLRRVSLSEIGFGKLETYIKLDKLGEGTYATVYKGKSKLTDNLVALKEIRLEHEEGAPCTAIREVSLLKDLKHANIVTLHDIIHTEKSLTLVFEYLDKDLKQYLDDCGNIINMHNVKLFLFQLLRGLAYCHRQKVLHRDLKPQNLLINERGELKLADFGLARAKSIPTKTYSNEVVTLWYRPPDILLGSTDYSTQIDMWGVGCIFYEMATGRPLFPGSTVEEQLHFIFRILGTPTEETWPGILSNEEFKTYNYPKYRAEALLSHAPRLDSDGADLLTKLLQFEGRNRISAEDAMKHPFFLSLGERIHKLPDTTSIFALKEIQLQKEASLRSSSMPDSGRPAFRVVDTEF
T3 sequence (Q8ND76 2-341 partner limits assumed): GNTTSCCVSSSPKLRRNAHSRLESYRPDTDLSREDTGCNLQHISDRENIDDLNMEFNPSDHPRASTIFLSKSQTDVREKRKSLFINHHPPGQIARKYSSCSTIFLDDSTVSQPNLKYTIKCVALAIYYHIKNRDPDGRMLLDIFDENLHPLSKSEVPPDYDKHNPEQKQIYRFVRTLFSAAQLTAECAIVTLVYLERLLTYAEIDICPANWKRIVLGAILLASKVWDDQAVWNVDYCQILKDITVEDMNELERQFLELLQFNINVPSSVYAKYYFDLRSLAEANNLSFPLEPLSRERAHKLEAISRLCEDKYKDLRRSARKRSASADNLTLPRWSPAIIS
GSK3B, sequence (P49841 35-386): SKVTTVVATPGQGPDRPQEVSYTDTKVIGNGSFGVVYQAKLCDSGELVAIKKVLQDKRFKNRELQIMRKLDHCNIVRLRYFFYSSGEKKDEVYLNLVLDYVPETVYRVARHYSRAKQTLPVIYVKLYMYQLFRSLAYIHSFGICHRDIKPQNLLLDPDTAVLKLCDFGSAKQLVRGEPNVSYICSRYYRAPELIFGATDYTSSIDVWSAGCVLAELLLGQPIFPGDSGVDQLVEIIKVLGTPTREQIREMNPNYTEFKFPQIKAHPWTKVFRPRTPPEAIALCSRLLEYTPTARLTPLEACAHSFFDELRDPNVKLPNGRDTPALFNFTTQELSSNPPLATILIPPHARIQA
T1 sequence (Q00536 163-478): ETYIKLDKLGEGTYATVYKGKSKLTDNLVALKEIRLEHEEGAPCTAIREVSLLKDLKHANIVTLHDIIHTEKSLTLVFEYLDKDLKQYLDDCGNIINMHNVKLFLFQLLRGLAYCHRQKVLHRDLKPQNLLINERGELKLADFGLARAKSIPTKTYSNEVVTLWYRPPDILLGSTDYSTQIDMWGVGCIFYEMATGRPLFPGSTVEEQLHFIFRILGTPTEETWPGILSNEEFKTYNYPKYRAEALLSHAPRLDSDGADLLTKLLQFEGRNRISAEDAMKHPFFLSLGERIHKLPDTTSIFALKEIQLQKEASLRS

On to `CNC(=O)c1cc(Nc2ccnc(Nc3ccc(CC#N)cc3)n2)[nH]n1` [41c, 5-((2-((4-(cyanomethyl)phenyl)amino)pyrimidin-4-yl)amino)-N-methyl-1H-pyrazole-3-carboxamide], for which the values for the shift in melting temperature (ΔTm) at 10 µM on CDK16, on CDK2 and on GSK3B were 1.4 ± 0.4 °C, 2.7 ± 0.2 °C and 9.3 ± 0.1 °C, respectively. The EC50 at CDK16/Cyclin Y is 5550 ± 636 nM.

Regarding `COC(=O)c1cc(Nc2nc(NCCCCCCNC(=O)OC(C)(C)C)ncc2Cl)[nH]n1` [22e, methyl 5-((2-((6-((tert-butoxycarbonyl)amino)hexyl)amino)-5-chloropyrimidin-4-yl)amino)-1H-pyrazole-3-carboxylate], the shift in melting temperature (ΔTm) at 10 µM is 0.2 ± 0.3 °C at CDK16, 0.7 °C at CDK2 and 2.9 ± 0.1 °C on GSK3B. Moreover, the EC50 at CDK16/Cyclin Y was 12090 ± 65 nM.

As to `COC(=O)c1cc(Nc2nc(Nc3cccc(CCNC(=O)OC(C)(C)C)c3)ncc2Cl)[nH]n1` [22b, methyl 5-((2-((3-(2-((tert-butoxycarbonyl)amino)ethyl)phenyl)amino)-5-chloropyrimidin-4-yl)amino)-1H-pyrazole-3-carboxylate], the results for the ΔTm at 10 µM on CDK16, on CDK2 and at GSK3B were 0.8 ± 0.1 °C, 2.1 ± 0.1 °C and 3.9 ± 0.6 °C, respectively. Also, at CDK16/Cyclin Y, the EC50 worked out at 3190 ± 589 nM.

For `CC(C)(C)OC(=O)NCCCCCCNc1nccc(Nc2cc(C3CC3)n[nH]2)n1` [11e, tert-butyl (6-((4-((3-cyclopropyl-1H-pyrazol-5-yl)amino)pyrimidin-2-yl)amino)hexyl)-carbamate], the results for the ΔTm at 10 µM on CDK16, on CDK2 and on GSK3B were 8.9 ± 0.3 °C, 11.2 ± 0.3 °C and 6.8 °C, respectively. Also, the EC50 at CDK16/Cyclin Y worked out at 36 ± 1.2 nM.

In the case of `COC(=O)c1cc(Nc2nc(NCCOCCNC(=O)OC(C)(C)C)ncc2Cl)[nH]n1` [22d, methyl 5-((2-((2-(2-((tert-butoxycarbonyl)amino)ethoxy)ethyl)amino)-5-chloropyrimidin-4-yl)amino)-1H-pyrazole-3-carboxylate], the figures for the ΔTm at 10 µM at CDK16, at CDK2 and at GSK3B were 0.2 ± 0.2 °C, 0.2 °C and 2.1 ± 0.1 °C, respectively. The EC50 at CDK16/Cyclin Y turned out to be 25000 ± 4220 nM.

Regarding `Cc1cnc(NCCOCCNC(=O)OC(C)(C)C)nc1Nc1cc(C2CC2)n[nH]1` [12d, tert-butyl (2-(2-((4-((3-cyclopropyl-1H-pyrazol-5-yl)amino)-5-methylpyrimidin-2-yl)amino)ethoxy)ethyl)carbamate], the shift in melting temperature (ΔTm) at 10 µM on CDK16 was found to be 5.8 ± 0.1 °C; at CDK2, 5.3 °C; on GSK3B, 6.6 °C. In addition, the EC50 at CDK16/Cyclin Y amounted to 619 ± 32 nM.

Regarding `Cc1cc(Nc2ccnc(NCCCCCNC(=O)OC(C)(C)C)n2)[nH]n1` [38b, tert-butyl (5-((4-((3-methyl-1H-pyrazol-5-yl)amino)pyrimidin-2-yl)amino)pentyl)-carbamate], the shift in melting temperature (ΔTm) at 10 µM on CDK16 was 5.8 ± 0.2 °C; on CDK2, 4.7 ± 0.1 °C; on GSK3B, 4.6 ± 0.1 °C. Further, at CDK16/Cyclin Y, the EC50 worked out at 253 ± 19.2 nM.

Take `CC(=O)NCCCCCCNc1nccc(Nc2cc(C3CC3)n[nH]2)n1` [compound 15, N-(6-((4-((3-cyclopropyl-1H-pyrazol-5-yl)amino)pyrimidin-2-yl)amino)hexyl)acetamide]: the ΔTm at 10 µM is 8.8 ± 0.1 °C on CDK16, 11.3 °C at CDK2 and 7.9 ± 0.1 °C on GSK3B. Besides, the EC50 on CDK16/Cyclin Y was 100 ± 7 nM.

As for `COC(=O)c1cc(Nc2ccnc(NCc3ccc(N)cc3)n2)n[nH]1` [compound 25, methyl 3-((2-((4-aminobenzyl)amino)pyrimidin-4-yl)amino)-1H-pyrazole-5-carboxylate], the shift in melting temperature (ΔTm) at 10 µM at CDK16 stood at 5.6 °C; on CDK2 it was 5.1 °C; at GSK3B, 10.3 ± 0.1 °C. In addition, on CDK16/Cyclin Y, the EC50 was 400 ± 30.6 nM.

For `CC(C)c1cc(Nc2ccnc(NCCCCCNC(=O)OC(C)(C)C)n2)[nH]n1` [39b, tert-butyl (5-((4-((3-isopropyl-1H-pyrazol-5-yl)amino)pyrimidin-2-yl)amino)pentyl)-carbamate], the ΔTm at 10 µM at CDK16 is 8.6 ± 0.1 °C; at CDK2 it was 9.5 ± 0.1 °C; on GSK3B it was 6.2 ± 0.1 °C. For the same compound, the EC50 at CDK16/Cyclin Y is 47 ± 4.1 nM.

As to `Cc1cnc(Nc2cccc(CCNC(=O)OC(C)(C)C)c2)nc1Nc1cc(C2CC2)n[nH]1` [12b, tert-butyl 3-((4-((3-cyclopropyl-1H-pyrazol-5-yl)amino)-5-methylpyrimidin-2-yl)amino)-phenethylcarbamate], the shift in melting temperature (ΔTm) at 10 µM on CDK16 came to 3.7 ± 0.1 °C; on CDK2 it was 4.7 °C; on GSK3B it was 5.1 °C. Moreover, on CDK16/Cyclin Y, the half-maximal effective concentration (EC50) was 1100 ± 44.5 nM.

Turning to `CC(C)(C)OC(=O)NCCc1ccc(Nc2nccc(Nc3cc(C(C)(C)C)n[nH]3)n2)cc1` [40a, tert-butyl 4-((4-((3-(tert-butyl)-1H-pyrazol-5-yl)amino)pyrimidin-2-yl)amino)phenethyl-carbamate], the figures for the shift in melting temperature (ΔTm) at 10 µM on CDK16, on CDK2 and at GSK3B were 4.4 ± 0.1 °C, 5.8 ± 0.1 °C and 5.7 °C, respectively. On CDK16/Cyclin Y, the EC50 stood at 1130 ± 20.5 nM.

As for `COC(=O)c1cc(Nc2nc(NCCCCCNC(=O)OC(C)(C)C)ncc2Cl)[nH]n1` [22c, methyl 5-((2-((5-((tert-butoxycarbonyl)amino)pentyl)amino)-5-chloropyrimidin-4-yl)amino)-1H-pyrazole-3-carboxylate], the ΔTm at 10 µM at CDK16 was 1 ± 0.1 °C; at CDK2, 1.5 ± 0.1 °C; at GSK3B, 4.8 ± 0.2 °C. The concentration giving a half-maximal response (EC50) at CDK16/Cyclin Y was found to be 8320 ± 227 nM.

In the case of `COC(=O)c1cc(Nc2ccnc(Nc3ccc(CCNC(=O)OC(C)(C)C)cc3)n2)[nH]n1` [21a, methyl 5-((2-((4-(2-((tert-butoxycarbonyl)amino)ethyl)phenyl)amino)pyrimidin-4-yl)amino)-1H-pyrazole-3-carboxylate], the ΔTm at 10 µM was determined as 4.3 ± 0.4 °C on CDK16, 3.1 ± 0.2 °C at CDK2 and 7.8 ± 0.2 °C on GSK3B. The EC50 at CDK16/Cyclin Y came to 652 ± 15.6 nM.

Consider `CC(C)(C)OC(=O)NCCc1cccc(Nc2nccc(Nc3cc(C4CC4)n[nH]3)n2)c1` [11b, tert-butyl 3-((4-((3-cyclopropyl-1H-pyrazol-5-yl)amino)pyrimidin-2-yl)amino)phenethyl-carbamate], for which the thermal shift (ΔTm) at 10 µM at CDK16 turned out to be 6.3 ± 0.3 °C; on CDK2, 8.2 ± 0.1 °C; at GSK3B, 7.2 ± 0.2 °C. In addition, at CDK16/Cyclin Y, the EC50 turned out to be 124 ± 10.4 nM.

Turning to `Cc1cnc(NCCCCCNC(=O)OC(C)(C)C)nc1Nc1cc(C2CC2)n[nH]1` [12c, tert-butyl (5-((4-((3-cyclopropyl-1H-pyrazol-5-yl)amino)-5-methylpyrimidin-2-yl)amino)-pentyl)carbamate], the shift in melting temperature (ΔTm) at 10 µM turned out to be 6.5 ± 0.1 °C on CDK16, 7.2 ± 0.2 °C at CDK2 and 6.1 ± 0.1 °C at GSK3B. Moreover, at CDK16/Cyclin Y, the EC50 came out at 176 ± 3 nM.

On to `Cc1cnc(NCCCCCCNC(=O)OC(C)(C)C)nc1Nc1cc(C2CC2)n[nH]1` [12e, tert-butyl (6-((4-((3-cyclopropyl-1H-pyrazol-5-yl)amino)-5-methylpyrimidin-2-yl)amino)hexyl)carbamate], for which the shift in melting temperature (ΔTm) at 10 µM on CDK16 was 6.3 °C; on CDK2, 8.1 ± 0.4 °C; at GSK3B, 5.8 ± 0.2 °C. For the same compound, on CDK16/Cyclin Y, the 50% effective concentration (EC50) is 191 ± 5.9 nM.

Broadly, the ΔTm is the change in melting temperature against a reference sample. In general, EC50 refers to the concentration giving half of the maximal effect.

The values are drawn from publication PMC9736855, “Discovery of 3-Amino-1H-pyrazole-Based Kinase Inhibitors to Illuminate the Understudied PCTAIRE Family” (International Journal of Molecular Sciences, 2022).
